The values that follow come from patent publication US20250325547A1, “ANTI-SARS-COV-2 DRUG” (KAGOSHIMA UNIVERSITY, priority 2021, published 2025).

Read-outs that look alike come from different tables or passages of the source.

Assay type in all cases: cell-based
The test system of assay [1] is SARS-CoV-2 Gamma strain (TY7-501).
For assay [2], the system named is SARS-CoV-2 Beta strain (TY8-612).
In assay [3] the test system is SARS-CoV-2 Alpha strain (QK002).
[4] abbreviates: Gamma strain (TY7-501), CPE assay in Vero/TMPRSS2.
[5] abbreviates: Beta strain (TY8-612), CPE assay in Vero/TMPRSS2.
Where [6] appears, read: Alpha strain (QK002), CPE assay in Vero/TMPRSS2.

As a reminder, the EC50 is the midpoint of the concentration-response curve. On to `CCN(Cc1cc(Nc2ncnc3ccccc23)cc(Cl)c1O)C(C)C` [Compound 11], for which the EC50 in assay [1] (setting [4]) was 5.4 µM; in assay [2] (setting [5]), 9.3 µM; in assay [3] (setting [6]), 3.8 µM.

As to `CC(C)N(Cc1cc(Nc2ncnc3ccccc23)cc(Cl)c1O)C(C)C` [Compound 15], the EC50 in assay [1] (setting [4]) is 3.5 µM; in assay [2] (setting [5]), 6.8 µM; in assay [3] (setting [6]), 2.7 µM.

As to `CCN(Cc1cc(Nc2ncnc3ccccc23)cc(Cl)c1O)C1CCCCC1` [Compound 19], the EC50 in assay [1] came to 4.2 µM; in assay [2] it was 8.6 µM; in assay [3] it was 5.8 µM.
